Reference: patent publication US9714243B2, “4-pyridinonetriazine derivatives as HIV integrase inhibitors” (Merck Sharp & Dohme Corp., priority 2012, dated 2017)
Read-outs that look alike come from different tables or passages of the source.

System: HIV-1 (NL4-3 strain)
Experiment: Assay for inhibition of HIV replication (ViKinG; infected MT4-GFP cells)
Format: cell-based
Procedure: Assay for inhibition of HIV replication
MT4-GFP cells (250,000 cells/ml) were bulk-infected with HIV-1 (NL4-3 strain) at low multiplicity of infection (MOI) in RPMI+10% FBS for 24 hours. […] Test compounds were serial-diluted in DMSO on ECHO. The infected MT4-GFP cells were added to a 384-well poly-D-lysine coated black plate with clear bottom in which the diluted test compounds were placed. The cells were seeded at 8,000 cells per well and the final DMSO concentration was 0.4%. The infected cells (Green GFP cells) were quantified at both 24 and 48 hours post incubation using Acumen eX3. Viral reproductive ratio (R0) was determined using the number of infected cells at 48 hours divided by the number of infected cells at 24 hours. Percent viral growth inhibition was calculated by [1−(R−Rtripledrug)/(RDMSO−Rtripledrug)]*100. Compound potency IP or IC50 was determined by a 4-parameter dose response curve analysis.

[1] = Human immunodeficiency virus 1, NL43, MT4-GFP cells infected with HIV-1 NL4-3, 0% normal human serum (NHS), read-out: ViKinG IP (nM) with 0% NHS
[2] = Human immunodeficiency virus 1, NL43, MT4-GFP cells infected with HIV-1 NL4-3, 100% normal human serum (NHS), read-out: ViKinG IP (nM) with 100% NHS
[3] = MT4-GFP cells infected with HIV-1 NL4-3, 0% normal human serum (NHS), read-out: ViKinG IP (nM) with 0% NHS
[4] = MT4-GFP cells infected with HIV-1 NL4-3, 100% normal human serum (NHS), read-out: ViKinG IP (nM) with 100% NHS
[5] = Human immunodeficiency virus 1, NL43, MT4-GFP cells infected with HIV-1 NL4-3, 10% normal human serum (NHS), read-out: ViKinG IP (nM) with 10% NHS
[6] = MT4-GFP cells infected with HIV-1 NL4-3, 10% normal human serum (NHS), read-out: ViKinG IP (nM) with 10% NHS

Row | Structure (SMILES) | IC50 [1] | IC50 [2] | IC50 [3] | also measured
1 | CCN1C(=O)c2c(O)c(=O)c(-c3nnc(Cc4ccc(F)cc4F)s3)cn2N(C)C12CCC(c1nc(C)no1)CC2 (stereo not drawn) [Compound 46] | 6.78 nM | 139 nM | – | –
2 | CCN1C(=O)c2c(O)c(=O)c(-c3nnc(Cc4ccc(F)cc4F)s3)cn2N(C)C12CCC(c1nc(C)no1)CC2 (stereo not drawn) [Compound 47] | – | – | 11.6 nM | IC50 [4]: 186 nM
3 | CCN1C(=O)c2c(O)c(=O)c(-c3nnc(Cc4ccc(F)cc4F)s3)cn2N(C)C12CCC(C(F)(F)F)CC2 (stereo not drawn) [Compound 49] | 19.8 nM | – | – | IC50 [4]: 406 nM
4 | CCN1C(=O)c2c(O)c(=O)c(-c3nnc(Cc4ccc(F)cc4F)s3)cn2N(C)C12CCC(C(F)(F)F)CC2 (stereo not drawn) [Compound 50] | – | – | 25.6 nM | IC50 [4]: 5380 nM
5 | CCN1C(=O)c2c(O)c(=O)c(-c3nnc(Cc4ccc(F)cc4F)s3)cn2N(C)C12CCC(O)CC2 (stereo not drawn) [Compound 51] | – | 204 nM | 8.5 nM | –
6 | CCN1C(=O)c2c(O)c(=O)c(-c3nnc(Cc4ccc(F)cc4F)s3)cn2N(C)C12CCC(O)CC2 (stereo not drawn) [Compound 52] | – | – | 2.33 nM | IC50 [4]: 130 nM
7 | CCN1C(=O)c2c(O)c(=O)c(-c3nnc(Cc4ccc(F)cc4F)s3)cn2N(C)C12CCC(Oc1ccccc1)CC2 (stereo not drawn) [Compound 53] | – | 1030 nM | 15.7 nM | –
8 | CCN1C(=O)c2c(O)c(=O)c(-c3nnc(Cc4ccc(F)cc4F)s3)cn2N(C)C12CCC(Oc1ccccc1)CC2 (stereo not drawn) [Compound 54] | – | – | 82.8 nM | IC50 [4]: 1470 nM
9 | CCN1C(=O)c2c(O)c(=O)c(-c3nnc(Cc4ccc(F)cc4F)s3)cn2N(C)C12CCC(CO)CC2 (stereo not drawn) [Compound 55] | 6.46 nM | 279 nM | – | –
10 | CCN1C(=O)c2c(O)c(=O)c(-c3nnc(Cc4ccc(F)cc4F)s3)cn2N(C)C12CCC(F)(F)CC2 [Compound 56] | 12 nM | 1980 nM | – | –
11 | CCc1noc(C2CCC3(CC2)N(CC)C(=O)c2c(O)c(=O)c(-c4nnc(Cc5ccc(F)cc5F)s4)cn2N3C)n1 (stereo not drawn) [Compound 57] | 18.1 nM | 145 nM | – | –
12 | CCc1noc(C2CCC3(CC2)N(CC)C(=O)c2c(O)c(=O)c(-c4nnc(Cc5ccc(F)cc5F)s4)cn2N3C)n1 (stereo not drawn) [Compound 58] | – | – | 14.1 nM | IC50 [4]: 228 nM
13 | CCN1C(=O)c2c(O)c(=O)c(-c3nnc(Cc4ccc(F)cc4F)s3)cn2N(C)C12CCC(C)(OC)CC2 (stereo not drawn) [Compound 59] | 8.66 nM | 124 nM | – | –
14 | CCCOC1CCC2(CC1)N(CC)C(=O)c1c(O)c(=O)c(-c3nnc(Cc4ccc(F)cc4F)s3)cn1N2C (stereo not drawn) [Compound 60] | – | 226 nM | 10.8 nM | –
15 | CCCOC1CCC2(CC1)N(CC)C(=O)c1c(O)c(=O)c(-c3nnc(Cc4ccc(F)cc4F)s3)cn1N2C (stereo not drawn) [Compound 61] | – | – | 23.8 nM | IC50 [4]: 221 nM
16 | CCN1C(=O)c2c(O)c(=O)c(-c3nnc(Cc4ccc(F)cc4F)s3)cn2N(C)C12CCC(OC(C)C)CC2 (stereo not drawn) [Compound 62] | – | – | 8.11 nM | IC50 [4]: 159 nM
17 | CCN1C(=O)c2c(O)c(=O)c(-c3nnc(Cc4ccc(F)cc4F)s3)cn2N(C)C12CCC(OC(C)C)CC2 (stereo not drawn) [Compound 63] | – | – | 27.6 nM | IC50 [4]: 391 nM
18 | CCN1C(=O)c2c(O)c(=O)c(-c3nnc(Cc4ccc(F)cc4F)s3)cn2N(C)C12CCC(OCCOC)CC2 (stereo not drawn) [Compound 64] | 3.3 nM | 77.2 nM | – | –
19 | CCN1C(=O)c2c(O)c(=O)c(-c3nnc(Cc4ccc(F)cc4F)s3)cn2N(C)C12CCC(OCCOC)CC2 (stereo not drawn) [Compound 65] | – | – | 6.27 nM | IC50 [4]: 123 nM
20 | CCN1C(=O)c2c(O)c(=O)c(-c3nnc(Cc4ccc(F)cc4F)s3)cn2N(C)C12CCC(OCCOCCOC)CC2 (stereo not drawn) [Compound 66] | 12 nM | 93.9 nM | – | –
21 | CCN1C(=O)c2c(O)c(=O)c(-c3nnc(Cc4ccc(F)cc4F)s3)cn2N(C)C12CCC(OCCOCCOC)CC2 (stereo not drawn) [Compound 67] | – | – | 12.5 nM | IC50 [4]: 160 nM
22 | CN1C(=O)c2c(O)c(=O)c(-c3nnc(Cc4ccc(F)cc4F)s3)cn2N(C)C12CCC(OC(=O)C(Cl)Cl)CC2 (stereo not drawn) [Compound 68] | – | – | – | IC50 [5]: 10.5 nM
23 | CN1C(=O)c2c(O)c(=O)c(-c3nnc(Cc4ccc(F)cc4F)s3)cn2N(C)C12CCC(C)(O)CC2 (stereo not drawn) [Compound 69] | – | – | 22.6 nM | IC50 [6]: 84.7 nM
24 | CN1C(=O)c2c(O)c(=O)c(-c3nnc(Cc4ccc(F)cc4F)s3)cn2N(C)C12CCC(C)(O)CC2 (stereo not drawn) [Compound 70] | – | – | 9.9 nM | IC50 [6]: 39.1 nM
25 | COC1(C)CCC2(CC1)N(C)C(=O)c1c(O)c(=O)c(-c3nnc(Cc4ccc(F)cc4F)s3)cn1N2C (stereo not drawn) [Compound 72] | 6.07 nM | – | – | IC50 [5]: 9.93 nM

Row | Structure (SMILES) | IC50 [1] | IC50 [2] | IC50 [3] | also measured
26 | COC1(C)CCC2(CC1)N(C)C(=O)c1c(O)c(=O)c(-c3nnc(Cc4ccc(F)cc4F)s3)cn1N2C (stereo not drawn) [Compound 73] | – | – | 7.04 nM | IC50 [6]: 11.9 nM
27 | CN1C(=O)c2c(O)c(=O)c(-c3nnc(Cc4ccc(F)cc4F)s3)cn2N(C)C12CCC(CO)CC2 (stereo not drawn) [Compound 74] | 6.84 nM | – | – | IC50 [5]: 23.6 nM
28 | CN1C(=O)c2c(O)c(=O)c(-c3nnc(Cc4ccc(F)cc4F)s3)cn2N(C)C12CCC(N)CC2 (stereo not drawn) [Compound 75] | 5.02 nM | – | – | IC50 [5]: 35.3 nM
29 | CN1C(=O)c2c(O)c(=O)c(-c3nnc(Cc4ccc(F)cc4F)s3)cn2N(C)C12CCCCCC2 [Compound 76] | 17.3 nM | 761 nM | – | IC50 [5]: 23.6 nM
30 | CN1C(=O)c2c(O)c(=O)c(-c3nnc(Cc4ccc(F)cc4F)s3)cn2N(C)C12C[C@H]1CC(O)C[C@H]1C2 (stereo partly drawn) [Compound 77] | 12.8 nM | – | – | IC50 [5]: 58 nM
31 | CN1C(=O)c2c(O)c(=O)c(-c3nnc(Cc4ccc(F)cc4F)s3)cn2N(C)C12CCC(O)C2 (stereo not drawn) [Compound 79] | 3.11 nM | – | – | IC50 [5]: 40.9 nM
32 | CN1C(=O)c2c(O)c(=O)c(-c3nnc(Cc4ccc(F)cc4F)s3)cn2N(C)C12CCC1C(=O)NC(=O)C1C2 (stereo not drawn) [Compound 80] | 50.1 nM | 915 nM | – | –
33 | CN1C(=O)c2c(O)c(=O)c(-c3nnc(Cc4ccc(F)cc4F)s3)cn2N(C)C12CCC1C(=O)NC(=O)C1C2 (stereo not drawn) [Compound 81] | – | – | 37.5 nM | IC50 [4]: 1610 nM
34 | CC(=O)NC1CCC2(CC1)N(C)C(=O)c1c(O)c(=O)c(-c3nnc(Cc4ccc(F)cc4F)s3)cn1N2C (stereo not drawn) [Compound 82] | 63.7 nM | 2560 nM | – | –
35 | CN1C(=O)c2c(O)c(=O)c(-c3nnc(Cc4ccc(F)cc4F)s3)cn2N(C)C12CCC(C)(C(=O)O)CC2 (stereo not drawn) [Compound 83] | – | – | 151 nM | IC50 [6]: 755 nM
36 | CN1C(=O)c2c(O)c(=O)c(-c3nnc(Cc4ccc(F)cc4F)s3)cn2N(C)C12CCC(C)(C(=O)O)CC2 (stereo not drawn) [Compound 84] | – | – | 51.5 nM | IC50 [6]: 209 nM
37 | CN1C(=O)c2c(O)c(=O)c(-c3nnc(Cc4ccc(F)cc4F)s3)cn2N(C)C12CCC(C)(CO)CC2 (stereo not drawn) [Compound 85] | 12.5 nM | 150 nM | – | IC50 [6]: 29.5 nM
38 | CN1C(=O)c2c(O)c(=O)c(-c3nnc(Cc4ccc(F)cc4F)s3)cn2N(C)C12CCC(C)(CO)CC2 (stereo not drawn) [Compound 86] | – | – | 6.34 nM | IC50 [6]: 94.3 nM; IC50 [4]: 185 nM
39 | CCN1C(=O)c2c(O)c(=O)c(-c3nnc(Cc4ccc(F)cc4)s3)cn2N(C)C12CCC(P(=O)(O)O)C2 (stereo not drawn) [Compound 87] | 626 nM | 2890 nM | – | –
40 | CN1C(=O)c2c(O)c(=O)c(-c3nnc(Cc4ccc(F)cc4F)s3)cn2N(C)C12CCC(C(=O)O)CC2 (stereo not drawn) [Compound 88] | – | – | 1280 nM | IC50 [6]: 4200 nM
41 | CN1C(=O)c2c(O)c(=O)c(-c3nnc(Cc4ccc(F)cc4F)s3)cn2N(C)C12CCC(C(=O)O)CC2 (stereo not drawn) [Compound 89] | – | – | 44.9 nM | IC50 [6]: 322 nM
42 | CCN1C(=O)c2c(O)c(=O)c(-c3nnc(Cc4ccc(F)cc4)s3)cn2N(C)C12CCC(C(=O)N(C)C)CC2 (stereo not drawn) [Compound 93] | – | – | – | IC50 [6]: 255 nM
43 | CCN1C(=O)c2c(O)c(=O)c(-c3nnc(Cc4ccc(F)cc4)s3)cn2N(C)C12CCC(C(=O)N(C)C)CC2 (stereo not drawn) [Compound 94] | – | 130 nM | – | IC50 [6]: 9.83 nM
44 | CCN1C(=O)c2c(O)c(=O)c(-c3nnc(Cc4ccc(F)cc4)s3)cn2N(C)C12CCC(C(=O)NC1CC1)CC2 (stereo not drawn) [Compound 96] | 8.63 nM | 171 nM | – | IC50 [5]: 16.2 nM
45 | CCN1C(=O)c2c(O)c(=O)c(-c3nnc(Cc4ccc(F)cc4)s3)cn2N(C)C12CCC(CC(=O)N(C)C)CC2 (stereo not drawn) [Compound 97] | – | 133 nM | – | IC50 [5]: 23.4 nM
46 | CCN1C(=O)c2c(O)c(=O)c(-c3nnc(Cc4ccc(F)cc4)s3)cn2N(C)C12CCC(CC(=O)N(C)C)CC2 (stereo not drawn) [Compound 98] | – | – | – | IC50 [6]: 32.2 nM; IC50 [4]: 168 nM
47 | CCN1C(=O)c2c(O)c(=O)c(-c3nnc(Cc4ccc(F)cc4)s3)cn2N(C)C12CCC(CC(=O)N(C)C)C2 (stereo not drawn) [Compound 99] | – | 122 nM | – | IC50 [5]: 34.9 nM
48 | CCN1C(=O)c2c(O)c(=O)c(-c3nnc(Cc4ccc(F)cc4F)s3)cn2N(C)C12CCC(C(=O)N(C)C)CC2 (stereo not drawn) [Compound 100] | 7.51 nM | 111 nM | – | IC50 [6]: 6.47 nM
49 | CCN1C(=O)c2c(O)c(=O)c(-c3nnc(Cc4ccc(F)cc4F)s3)cn2N(C)C12CCC(C(=O)N(C)C)CC2 (stereo not drawn) [Compound 101] | – | – | – | IC50 [6]: 37.5 nM
50 | CCN1C(=O)c2c(O)c(=O)c(-c3nnc(Cc4ccc(F)cc4F)s3)cn2N(C)C12CCC(C(=O)N(C)CC(F)(F)F)CC2 (stereo not drawn) [Compound 102] | 12.2 nM | 170 nM | – | –
